Data published in patent US20150218516A1, “COMPOSITIONS AND METHODS FOR ENHANCING IMMUNE RESPONSES MEDIATED BY ANTIGEN-PRESENTING CELLS” (The Board of Regents of the University of Nebraska, priority 2007, published 2015).
Non-standard residues stand in square brackets, D forms with d. Residues, ends and D or L forms follow the SMILES beside them.

What was measured:
human PMNs = experiment: MPO release from human PMNs; type: cell-based; details: for pD2 ± SE: −log EC50 (M), mean ± SE, n=3
Description: (§1) Statistical analysis of the values obtained from pharmacologic assays was performed using one-way analysis of variance (ANOVA).

C5aRs on Human PMNs = target: T1, C5aRs on Human PMNs (Homo sapiens, UniProt P21730); experiment: Competition assay with 125I-C5a for C5aR binding on intact human PMNs
T1 construct: endogenous in cells; host or cells: intact human PMNs (polymorphonuclear leukocytes)
T1 sequence (P21730 1-350): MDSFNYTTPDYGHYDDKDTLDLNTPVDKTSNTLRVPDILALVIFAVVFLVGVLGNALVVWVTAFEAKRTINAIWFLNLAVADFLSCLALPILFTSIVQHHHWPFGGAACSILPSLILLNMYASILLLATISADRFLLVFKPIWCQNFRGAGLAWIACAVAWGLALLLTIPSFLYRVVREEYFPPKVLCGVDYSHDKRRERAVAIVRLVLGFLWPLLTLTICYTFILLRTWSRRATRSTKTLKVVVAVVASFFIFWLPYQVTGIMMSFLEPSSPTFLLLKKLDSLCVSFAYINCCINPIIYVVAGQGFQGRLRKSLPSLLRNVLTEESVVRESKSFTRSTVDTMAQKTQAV
Description: C5a-like agonistic activity was assessed by the ability of the peptides to induce smooth muscle contraction of human umbilical artery and MPO release from human PMNs according to previously published methods (Sanderson et al., 1994, supra; Sanderson et al., J. Med. Chem. 38, 3669, 1995; Finch et al., J. Med. Chem. 40, 877, 1997). Full concentration-response curves were generated for individual peptides and natural C5a in each assay and the EC50 values (the concentration of peptide producing 50% of the maximal response to each peptide) were calculated. pD2 transforms [−log EC50 (M)] were calculated for each concentration-response curve and reported as the mean±SE. Peptide binding affinity to the C5aR was evaluated on intact human PMNs by a competition assay using ^125I-C5a according to previously described methods (Sanderson et al., 1995, supra; Finch et al., 1997, supra). Statistical analysis of the values obtained from pharmacologic assays was performed using one-way analysis of variance (ANOVA).

human umbilical artery = experiment: Smooth muscle contraction of human umbilical artery; type: cell-based; details: for EC50: concentration resulting in 50% maximum contraction; for pD2 ± SE: −log EC50 (M), mean ± SE, n=3
Description: as §1

SKRC-52 = details: cord blood T lymphocytes, dendritic cells exposed to the peptide
Description: (§2) An exemplary in vitro cytotoxicity assay comprises the following steps. Antigen presenting cells, such as dendritic cells, were obtained from bone marrow or blood. Dendritic cells were preferentially differentiated in culture through the addition of IL-4, GM-CSF, and TNFα for 7-10 days. Dendritic cells were then pulsed with peptides for 18 hours. MNCs were also isolated from spleens or blood (e.g., cord or peripheral) and cultured in IL-2 and GM-CSF for 7-10 days for enhanced lymphocyte proliferation. The pulsed dendritic cells were then co-cultured with the lymphocyte-enriched MNCs at a 1:10 ratio for 4 days. Lymphocyte-enriched MNC effector cells were then co-cultured with tumor target cells labeled with the bioactive fluorescent dye Calcein AM for 4 hours. Lysed cells were detected by photometrically measuring the released fluorescent dye.
(§3) Certain renal cell carcinomas express the tumor antigen G250. […] The fusion peptide was administered to APCs which were subsequently presented for 4 days to a lymphocyte-enriched population from cord blood as described hereinabove in Example 6.

SKRC-1 = details: low G250 expression; cord blood T lymphocytes
Description: as §2, §3

LNCaP cells = tested on: LNCaP cells
Description: as §2
(§4) Certain prostate carcinomas express prostate-specific membrane antigen (PSMA). […] The fusion peptides were administered to APCs which were subsequently presented to a lymphocyte-enriched population from cord blood as described hereinabove in Example 6. After antigen presentation by pulsed DC in co-culture, CTLs were tested for their ability to lyse three different target cell monolayers in an in vitro cytotoxicity assay. […] The fusion peptides were also administered to APCs which were subsequently presented to a adult peripheral blood-derived CTLs. In vitro cytotoxicity against the human prostate cancer cell line LNCaP was then assessed using the bioactive fluorescent dye calcein AM (FIG. 11D).

BEAS-2B epithelial cells = tested on: BEAS-2B epithelial cells
Description: as §2, §4

[1] = tested on: A-375 cell line (melanoma); type: cell-based, human
Description: The tumor peptide antigen tyrosinase is expressed on more than 70% of human melanoma cells that are human leukocyte antigen (HLA) A2 positive. […] The dendritic cells, presumably expressing the tyrosinase epitope, were then cultured with a lymphocyte-enriched cell population which was then cultured with melanoma cells to determine melanoma cell killing using a cytotoxic T lymphocyte assay.

κR(33-52) peptide = experiment: Peptide-specific ELISA of serum and protein A-purified antibody from immunized rabbits; type: in vivo
Description: Rabbits were immunized s.c. with 500 μg of […]aR (SEQ ID NO: 10) construct in complete Freund's adjuvant (GIBCO, Grand Island, N.Y.) on day 0 followed by booster injections on days 30 and 60 in incomplete Freund's adjuvant. Serum was collected starting 75 days after the initial immunization.
The presence of anti-peptide antibody was determined by using a peptide specific ELISA utilizing the free κR(33-52) peptide as previously described (Morgan et al. (1993) J. Immunol., 151: 377). Anti-κR(33-52) and normal rabbit γ-globulin (RGG) were purified by protein A Sepharose chromatography (Sigma) (Morgan et al. (1993) J. Immunol., 151: 377) prior to use.

CC[C@H](C)[C@H](NC(=O)[C@H](CCCNC(=N)N)NC(=O)[C@H](CCCNC(=N)N)NC(=O)[C@H](CCCNC(=N)N)NC(=O)[C@@H](C)NC(=O)[C@H](CC(C)C)NC(=O)[C@@H]1CCCN1C(=O)[C@H](CCSC)NC(=O)[C@@H]1CCCN1C(=O)[C@H](CCCCN)NC(=O)[C@H](Cc1ccccc1)NC(=O)[C@H](CO)NC(=O)[C@@H](N)Cc1ccc(O)cc1)C(=O)N1CCC[C@H]1C(=O)N[C@@H](CCC(N)=O)C(=O)N[C@@H](CO)C(=O)N[C@@H](CC(C)C)C(=O)N[C@@H](CC(=O)O)C(=O)N[C@@H](CO)C(=O)N[C@@H](Cc1c[nH]c2ccccc12)C(=O)N[C@@H](Cc1c[nH]c2ccccc12)C(=O)N[C@H](C(=O)N[C@@H](CO)C(=O)N[C@@H](CC(C)C)C(=O)O)[C@@H](C)O
MPO release from PMNs (in words) (human PMNs): inactive
pD2 ± SE (human PMNs): >3
binding to the C5aR (in words) (C5aRs on Human PMNs): bound poorly
potency in umbilical artery contraction (in words) (human umbilical artery): significantly less potent
EC50 (human umbilical artery): 39.4 µM
pD2 ± SE (human umbilical artery): 4.41 ± 0.06

CSCC[C@H](NC(=O)[C@@H]1CCCN1C(=O)[C@H](CCCCN)NC(=O)[C@H](Cc1ccccc1)NC(=O)[C@H](CO)NC(=O)[C@H](Cc1ccc(O)cc1)NC(=O)[C@H](CCCNC(=N)N)NC(=O)[C@H](CCCNC(=N)N)NC(=O)[C@@H](NC(=O)[C@H](CCCNC(=N)N)NC(=O)[C@H](C)NC(=O)[C@H](Cc1ccccc1)NC(=O)[C@H](C)NC(=O)[C@@H](NC(=O)[C@H](CO)NC(=O)[C@H](CC(C)C)NC(=O)[C@@H](N)Cc1c[nH]cn1)[C@@H](C)O)C(C)C)C(=O)N1CCC[C@H]1C(=O)N[C@@H](CC(C)C)C(=O)N[C@H](C)C(=O)N[C@@H](CCCNC(=N)N)C(=O)O (H-HLSTAFARVRRYSFKPMPL[dA]R-OH)
cytotoxicity against SKRC-52 (in words) (SKRC-52): significant cytotoxicity
cytotoxicity against SKRC-1 (in words) (SKRC-1): exhibited cytotoxicity

CSCC[C@H](NC(=O)[C@@H]1CCCN1C(=O)[C@H](CCCCN)NC(=O)[C@H](Cc1ccccc1)NC(=O)[C@H](CO)NC(=O)[C@H](Cc1ccc(O)cc1)NC(=O)[C@@H](NC(=O)[C@H](CCCNC(=N)N)NC(=O)[C@H](C)NC(=O)[C@H](Cc1ccccc1)NC(=O)[C@H](C)NC(=O)[C@@H](NC(=O)[C@H](CO)NC(=O)[C@H](CC(C)C)NC(=O)[C@@H](N)Cc1c[nH]cn1)[C@@H](C)O)C(C)C)C(=O)N1CCC[C@H]1C(=O)N[C@@H](CC(C)C)C(=O)N[C@H](C)C(=O)N[C@@H](CCCNC(=N)N)C(=O)O (H-HLSTAFARVYSFKPMPL[dA]R-OH)
cytotoxicity against SKRC-52 (in words) (SKRC-52): significant cytotoxicity
cytotoxicity against SKRC-1 (in words) (SKRC-1): exhibited cytotoxicity

CC[C@H](C)[C@H](N)C(=O)N1CCC[C@H]1C(=O)N[C@@H](CCC(N)=O)C(=O)N[C@@H](CO)C(=O)N[C@@H](CC(C)C)C(=O)N[C@@H](CC(=O)O)C(=O)N[C@@H](CO)C(=O)N[C@@H](Cc1c[nH]c2ccccc12)C(=O)N[C@@H](Cc1c[nH]c2ccccc12)C(=O)N[C@H](C(=O)N[C@@H](CO)C(=O)N[C@@H](CC(C)C)C(=O)N[C@@H](CCCNC(=N)N)C(=O)N[C@@H](CCCNC(=N)N)C(=O)N[C@@H](Cc1ccc(O)cc1)C(=O)N[C@@H](CO)C(=O)N[C@@H](Cc1ccccc1)C(=O)N[C@@H](CCCCN)C(=O)N1CCC[C@H]1C(=O)N[C@@H](CCSC)C(=O)N1CCC[C@H]1C(=O)N[C@@H](CC(C)C)C(=O)N[C@H](C)C(=O)N[C@@H](CCCNC(=N)N)C(=O)NCC(=O)O)[C@@H](C)O (H-IPQSLDSWWTSLRRYSFKPMPL[dA]RG-OH)
MPO release from PMNs (in words) (human PMNs): unable to induce a full response
EC50 (human PMNs; 50% maximum release of myeloperoxidase): 2.56 µM
pD2 ± SE (human PMNs): 5.59 ± 0.28
binding to the C5aR (in words) (C5aRs on Human PMNs): significantly less affinity
potency in umbilical artery contraction (in words) (human umbilical artery): significantly less potent
EC50 (human umbilical artery): 6.78 µM
pD2 ± SE (human umbilical artery): 5.17 ± 0.13

CC(C)C[C@H](NC(=O)[C@@H](N)CC(C)C)C(=O)N[C@@H](Cc1c[nH]cn1)C(=O)N[C@@H](CCC(=O)O)C(=O)N[C@H](C(=O)N[C@@H](CC(=O)O)C(=O)N[C@@H](CO)C(=O)N[C@@H](C)C(=O)N[C@H](C(=O)O)C(C)C)[C@@H](C)O [PSMA p1]
cytotoxicity against LNCaP (in words) (LNCaP cells): did not exhibit significant cytotoxicity
cytotoxicity against BEAS-2B (in words) (BEAS-2B epithelial cells): not cytotoxic
cytotoxicity against A-375 (in words) [1]: not cytotoxic

CC[C@H](C)[C@H](NC(=O)[C@H](CC(=O)O)NC(=O)[C@H](Cc1ccccc1)NC(=O)[C@H](CC(C)C)NC(=O)[C@H](C)N)C(=O)N[C@@H](CCC(=O)O)C(=O)N[C@@H](CO)C(=O)N[C@@H](CCCCN)C(=O)N[C@H](C(=O)O)C(C)C [PSMA p2]
cytotoxicity against LNCaP (in words) (LNCaP cells): did not exhibit significant cytotoxicity
cytotoxicity against BEAS-2B (in words) (BEAS-2B epithelial cells): not cytotoxic
cytotoxicity against A-375 (in words) [1]: not cytotoxic

FPGWAEPDSNGSAGSEDAQLYSFKPMPLaR
antibody concentration at which binding to free κR(33-52) was detectable (κR(33-52) peptide; protein A-purified antibody from immunized rabbits): less than 0.1 ng/ml
ED50 titer (κR(33-52) peptide; protein A-purified antibody, multiple bleedings): 1 to 10 ng/mL
serum titer against free κR(33-52) peptide (κR(33-52) peptide; rabbits, 500 μg s.c. in Freund's adjuvant): approximately 10^5
